Assay results reported in ChEMBL document CHEMBL2439977, “Discovery of novel bacterial RNA polymerase inhibitors: pharmacophore-based virtual screening and hit optimization” (J Med Chem, 2013).
Converted amounts (≈) assume the structure as drawn. The source made the active and inactive calls. No cut-off for these calls is given here.

What was measured:
[1] = Inhibition of Escherichia coli RNA polymerase by transcription assay
Escherichia coli [2] = assay: Antibacterial activity against Escherichia coli expressing TolC mutant; format: functional
[3] = Inhibition of Escherichia coli RNA polymerase core enzyme by transcription assay
Escherichia coli [4] = assay: Ratio of IC50 for Escherichia coli RNA polymerase core enzyme to IC50 for Escherichia coli RNA polymerase holo enzyme
[5] = Inhibition of Escherichia coli RNA polymerase-RNA polymerase sigma factor RpoD interaction by ELISA
[6] = Inhibition of Escherichia coli RNA polymerase holo enzyme by transcription assay
Escherichia coli [7] = assay: Inhibition of Escherichia coli RNA polymerase at 50 uM by transcription assay
Staphylococcus aureus = assay: Antibacterial activity against Staphylococcus aureus; format: functional
Escherichia coli [8] = assay: Antibacterial activity against Escherichia coli K-12; format: functional
Pseudomonas aeruginosa = assay: Antibacterial activity against Pseudomonas aeruginosa PAO1; format: functional
Bacillus subtilis = assay: Antibacterial activity against Bacillus subtilis; format: functional
Escherichia coli [9] = assay: Inhibition of Escherichia coli RNA polymerase at 200 uM by transcription assay
Escherichia coli [10] = assay: Induction of resistant frequency in Escherichia coli expressing TolC mutant at 2 times MIC treated for every 3 days; format: functional, organism-based
Escherichia coli [11] = assay: Inhibition of Escherichia coli RNA polymerase-RNA polymerase sigma factor RpoD interaction at 10 uM by ELISA

O=C(Nc1cc(C(F)(F)F)ccc1C(=O)O)c1ccc(-c2ccccc2)cc1
IC50 ([1]; read-out: IC50): 27 µM
MIC (Escherichia coli [2]): 5 µg/mL (≈ 13 µM)

CCCN(CCC)S(=O)(=O)c1ccc(C(=O)Nc2cc3ccccc3cc2C(=O)O)cc1
IC50 [3]: 81 µM
Ratio IC50 (Escherichia coli [4]): 2.6
IC50 [5]: 97 µM
IC50 [6]: 52 µM

O=C(Nc1c(Cl)cccc1C(=O)O)c1ccc(-c2ccccc2)cc1
IC50 [1]: Not Active
MIC (Escherichia coli [2]): 55 µg/mL (≈ 156 µM)

COc1cc(NC(=O)c2cccc(Oc3ccccc3)c2)c(C(=O)O)cc1OC
IC50 ([1]; read-out: IC50): 154 µM
MIC (Escherichia coli [2]): 6 µg/mL (≈ 15.3 µM)

N#Cc1ccc(NC(=O)c2ccc(-c3ccccc3)cc2)c(C(=O)O)c1
inhibition (Escherichia coli [7]): 23%
MIC (Escherichia coli [2]): 7 µg/mL (≈ 20.4 µM)

COc1cccc(NC(=O)c2ccc(-c3ccccc3)cc2)c1C(=O)O
IC50 [1]: Not Active
MIC (Escherichia coli [2]): 58 µg/mL (≈ 167 µM)

O=C(Nc1ccccc1C(=O)O)c1ccccc1
IC50 [1]: Not Active
MIC (Escherichia coli [2]): > 100 µg/mL

O=C(Nc1cc(F)ccc1C(=O)O)c1ccc(-c2ccccc2)c(Oc2ccccc2)c1
MIC (Staphylococcus aureus): 17 µg/mL (≈ 39.8 µM)
MIC (Escherichia coli [8]): > 25 µg/mL
IC50 ([1]; read-out: IC50): 13 µM
MIC (Pseudomonas aeruginosa): > 25 µg/mL
MIC (Bacillus subtilis): > 25 µg/mL
MIC (Escherichia coli [2]): > 25 µg/mL

O=C(Nc1cccc(F)c1C(=O)O)c1ccc(-c2ccccc2)cc1
MIC (Escherichia coli [2]): 34 µg/mL (≈ 101 µM)
inhibition (Escherichia coli [9]): 14%

O=C(Nc1ccccc1C(=O)O)c1ccc(-c2ccccc2)c(Oc2ccccc2)c1
IC50 [3]: 36 µM
Ratio IC50 (Escherichia coli [4]): 3
IC50 ([1]; read-out: IC50): 20 µM
MIC (Escherichia coli [2]): 13 µg/mL (≈ 31.8 µM)
IC50 [5]: 41 µM
IC50 [6]: 20 µM
inhibition (Escherichia coli [9]): 100%

COc1ccc(NC(=O)c2ccc(-c3ccccc3)cc2)c(C(=O)O)c1
MIC (Escherichia coli [2]): 8 µg/mL (≈ 23 µM)
inhibition (Escherichia coli [9]): 52%

O=C(Nc1ccccc1C(=O)O)c1ccc(-c2ccccc2)cc1
MIC (Escherichia coli [2]): 13 µg/mL (≈ 41 µM)
inhibition (Escherichia coli [9]): 31%

O=C(Nc1ccc(OC(F)(F)F)cc1C(=O)O)c1ccc(-c2ccccc2)cc1
IC50 ([1]; read-out: IC50): 31 µM
MIC (Escherichia coli [2]): 4 µg/mL (≈ 9.97 µM)

CO[C@H]1/C=C/O[C@@]2(C)Oc3c(C)c(O)c4c(O)c(c(/C=N/N5CCN(C)CC5)c(O)c4c3C2=O)NC(=O)/C(C)=C\C=C\[C@H](C)[C@H](O)[C@@H](C)[C@@H](O)[C@@H](C)[C@H](OC(C)=O)[C@@H]1C [RIFAMPIN]
MIC (Staphylococcus aureus): 0.02 µg/mL (≈ 0.0243 µM)
Activity (Escherichia coli [10]): Active
MIC (Escherichia coli [8]): 7 µg/mL (≈ 8.51 µM)
IC50 [3]: 0.016 µM
Ratio IC50 (Escherichia coli [4]): 1
IC50 ([1]; read-out: IC50): 0.03 µM
MIC (Pseudomonas aeruginosa): 13 µg/mL (≈ 15.8 µM)
inhibition (Escherichia coli [11]): < 5%
MIC (Bacillus subtilis): 5 µg/mL (≈ 6.08 µM)
MIC (Escherichia coli [2]): 10 µg/mL (≈ 12.2 µM)
IC50 [6]: 0.027 µM

O=C(Nc1ccc(O)cc1C(=O)O)c1ccc(-c2ccccc2)cc1
MIC (Escherichia coli [2]): 31 µg/mL (≈ 93 µM)
inhibition (Escherichia coli [9]): 17%

O=C(Nc1ccc(F)cc1C(=O)O)c1ccc(-c2ccccc2)cc1
IC50 ([1]; read-out: IC50): 138 µM
MIC (Escherichia coli [2]): 7 µg/mL (≈ 20.9 µM)

O=C(Nc1cc(-c2ccccc2)ccc1C(=O)O)c1cccc(Oc2ccccc2)c1
IC50 ([1]; read-out: IC50): 14 µM
MIC (Escherichia coli [2]): 8 µg/mL (≈ 19.5 µM)

COc1cc(NC(=O)c2ccc(-c3ccccc3)cc2)c(C(=O)O)cc1OC
MIC (Escherichia coli [2]): 19 µg/mL (≈ 50.3 µM)
inhibition (Escherichia coli [9]): 35%

COc1ccc(C(=O)O)c(NC(=O)c2ccc(-c3ccccc3)cc2)c1
IC50 ([1]; read-out: IC50): 162 µM
MIC (Escherichia coli [2]): 9 µg/mL (≈ 25.9 µM)
